In US11339130B1 (Blade Therapeutics, Inc., priority 2016, dated 2022):
Counter-ions that a name gives are not always drawn. Like-named read-outs stand apart in the source and are kept apart here.

What was measured:
Human Calpain 2/NS1 = molecular target: T1, Human Calpain 2/NS1 (Homo sapiens, UniProt P17655); assay: Calpain inhibition continuous fluorescence (FRET) assay, Human Calpain 2/NS1; format: biochemical; details: read-out: Human Calpain 2/NS1 IC50
T1 sequence (P17655 1-700): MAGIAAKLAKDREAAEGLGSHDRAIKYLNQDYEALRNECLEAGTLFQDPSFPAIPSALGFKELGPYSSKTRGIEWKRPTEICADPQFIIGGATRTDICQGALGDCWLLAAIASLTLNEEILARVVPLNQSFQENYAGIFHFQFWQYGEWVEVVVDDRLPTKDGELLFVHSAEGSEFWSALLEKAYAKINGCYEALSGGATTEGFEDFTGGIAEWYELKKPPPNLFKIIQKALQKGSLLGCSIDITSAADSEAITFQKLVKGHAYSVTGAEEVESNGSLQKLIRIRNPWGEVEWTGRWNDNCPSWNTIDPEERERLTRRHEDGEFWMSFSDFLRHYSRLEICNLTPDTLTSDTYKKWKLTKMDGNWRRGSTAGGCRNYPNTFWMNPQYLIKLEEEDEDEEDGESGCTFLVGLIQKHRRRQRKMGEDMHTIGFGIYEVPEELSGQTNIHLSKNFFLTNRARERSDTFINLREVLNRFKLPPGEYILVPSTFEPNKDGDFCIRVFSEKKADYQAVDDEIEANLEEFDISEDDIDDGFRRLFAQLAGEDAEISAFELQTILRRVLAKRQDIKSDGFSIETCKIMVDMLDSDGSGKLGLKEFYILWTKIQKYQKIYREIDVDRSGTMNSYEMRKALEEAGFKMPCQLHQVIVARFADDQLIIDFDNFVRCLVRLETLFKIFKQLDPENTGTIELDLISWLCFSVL
T1 sequence (P04632 1-268 partner): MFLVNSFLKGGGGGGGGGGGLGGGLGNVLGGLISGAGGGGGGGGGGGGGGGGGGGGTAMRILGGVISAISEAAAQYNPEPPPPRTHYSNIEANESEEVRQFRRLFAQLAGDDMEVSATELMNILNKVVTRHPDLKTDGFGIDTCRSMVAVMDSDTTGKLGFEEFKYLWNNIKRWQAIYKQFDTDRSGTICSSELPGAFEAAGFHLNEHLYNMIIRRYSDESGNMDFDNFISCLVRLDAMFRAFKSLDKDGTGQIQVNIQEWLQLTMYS
Procedure, shortened: (§1)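 Human calpains 1, 2 and 9 preincubated with inhibitor at 25 °C in 50 mM Tris pH 7.5, 100 mM NaCl, 1 mM DTT; reaction started with 5-FAM/QXL 520 FRET peptide plus CaCl2 for activation. Fluorescence (490/520 nm) followed 10 min; rates from 1-5 min slopes fitted to 4-parameter logistic for IC50.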

Human Calpain 9/NS1 = molecular target: T2, Human Calpain 9/NS1 (Homo sapiens, UniProt O14815); assay: Calpain inhibition continuous fluorescence (FRET) assay, Human Calpain 9/NS1; format: biochemical; details: read-out: Human Calpain 9/NS1 IC50
T2 sequence (O14815 1-690): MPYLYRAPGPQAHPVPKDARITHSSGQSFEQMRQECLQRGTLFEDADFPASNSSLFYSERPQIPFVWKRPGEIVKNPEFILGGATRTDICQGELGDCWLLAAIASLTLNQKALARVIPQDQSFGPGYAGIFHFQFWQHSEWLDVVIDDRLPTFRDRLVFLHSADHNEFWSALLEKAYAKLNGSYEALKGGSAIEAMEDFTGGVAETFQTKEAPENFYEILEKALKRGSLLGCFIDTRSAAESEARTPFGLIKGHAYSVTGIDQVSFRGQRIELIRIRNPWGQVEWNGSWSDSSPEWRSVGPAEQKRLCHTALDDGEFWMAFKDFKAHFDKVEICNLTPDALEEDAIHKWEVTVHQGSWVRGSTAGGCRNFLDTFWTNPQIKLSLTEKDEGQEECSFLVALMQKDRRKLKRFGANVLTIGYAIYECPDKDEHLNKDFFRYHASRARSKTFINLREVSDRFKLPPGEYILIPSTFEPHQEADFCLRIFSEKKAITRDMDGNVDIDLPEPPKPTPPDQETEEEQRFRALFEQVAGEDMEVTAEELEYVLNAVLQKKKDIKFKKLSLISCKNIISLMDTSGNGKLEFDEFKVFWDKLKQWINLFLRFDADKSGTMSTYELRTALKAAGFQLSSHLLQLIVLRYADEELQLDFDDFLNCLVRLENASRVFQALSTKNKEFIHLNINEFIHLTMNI
T2 sequence (P04632 1-268 partner): T1 sequence (P04632 1-268 partner)
Procedure, shortened: as §1

[1] = system: Calpain activity in SH-SY5Y cells (SBDP-150); assay: SH-SY5Y Spectrin western blot assay (SBDP-150 breakdown product, A23187-induced); format: cell-based; details: Homo sapiens, read-out: SH-SY5Y Spectrin IC50
[2] = system: Calpain activity in SH-SY5Y cells; assay: SH-SY5Y + AMC fluorescence assay (Suc-LLVY-AMC substrate); format: cell-based; details: read-out: SH-SY5Y + AMC IC50
Human Calpain 1/NS1 = molecular target: T3, Human Calpain 1/NS1 (Homo sapiens, UniProt P07384); assay: Calpain inhibition continuous fluorescence (FRET) assay, Human Calpain 1/NS1; format: biochemical; details: read-out: Human Calpain 1/NS1 IC50
T3 sequence (P07384 1-714): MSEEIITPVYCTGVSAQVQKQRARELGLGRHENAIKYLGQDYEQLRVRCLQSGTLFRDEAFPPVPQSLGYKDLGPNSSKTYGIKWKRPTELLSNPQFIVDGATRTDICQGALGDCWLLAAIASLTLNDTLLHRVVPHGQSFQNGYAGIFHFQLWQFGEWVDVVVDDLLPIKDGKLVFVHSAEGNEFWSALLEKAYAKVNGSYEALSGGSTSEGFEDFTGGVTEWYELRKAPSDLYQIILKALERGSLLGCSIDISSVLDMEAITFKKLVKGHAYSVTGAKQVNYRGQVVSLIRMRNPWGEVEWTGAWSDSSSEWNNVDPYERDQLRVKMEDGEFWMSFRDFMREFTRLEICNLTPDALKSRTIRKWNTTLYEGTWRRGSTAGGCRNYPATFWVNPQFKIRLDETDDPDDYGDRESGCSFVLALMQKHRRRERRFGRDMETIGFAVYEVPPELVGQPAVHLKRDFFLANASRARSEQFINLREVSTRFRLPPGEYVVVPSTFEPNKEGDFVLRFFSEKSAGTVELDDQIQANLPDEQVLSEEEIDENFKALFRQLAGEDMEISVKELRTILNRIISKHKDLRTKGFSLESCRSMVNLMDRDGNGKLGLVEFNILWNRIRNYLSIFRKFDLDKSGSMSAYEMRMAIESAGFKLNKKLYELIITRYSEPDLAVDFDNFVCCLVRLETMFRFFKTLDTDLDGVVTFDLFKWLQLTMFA
T3 sequence (P04632 1-268 partner): T1 sequence (P04632 1-268 partner)
Procedure, shortened: as §1

[3] = Column D, SH-SY5Y cells, A23187-induced SBDP-150
[4] = SH-SY5Y cells, A23187-induced SBDP-150, western blot

For `COc1ccc2nc(-n3nc(C(=O)N[C@@H](Cc4ccccc4)C(=O)C(N)=O)cc3C)sc2c1` [Compound 296, (S)—N-(4-amino-3,4-dioxo-1-phenylbutan-2-yl)-1-(6-methoxybenzo[d]thiazol-2-yl)-5-methyl-1H-pyrazole-3-carboxamide], the IC50 (Human Calpain 2/NS1; Column B) was under 3 µM, the IC50 (Human Calpain 9/NS1; Column C) was under 3 µM and the IC50 [1, 3] was under 10 µM. The IC50 ([2]; Column E) was over 25 µM and the IC50 (Human Calpain 1/NS1; Column A) was under 3 µM.

`Cn1cc(C(=O)NC(Cc2ccccc2)C(=O)C(N)=O)c(N2CCN(C(=O)OC(C)(C)C)CC2)n1` (stereo not drawn) [Compound 603, Tert-Butyl 4-(4-((4-amino-3,4-dioxo-1-phenylbutan-2-yl)carbamoyl)-1-methyl-1H-pyrazol-3-yl)piperazine-1-carboxylate] gave an IC50 (Human Calpain 2/NS1) of 3 to 10 µM, an IC50 (Human Calpain 9/NS1) of 3 to 10 µM and an IC50 ([1]; SH-SY5Y) of over 25 µM. For the same molecule, the IC50 [2] was over 25 µM and the IC50 (Human Calpain 1/NS1) was 3 to 10 µM.

Work on `CC(C)CC(NC(=O)c1nsnc1-c1ccccc1)C(=O)C(N)=O` (stereo not drawn) [Compound 465, N-(1-amino-5-methyl-1,2-dioxohexan-3-yl)-4-phenyl-1,2,5-thiadiazole-3-carboxamide] yielded an IC50 (Human Calpain 2/NS1) of under 3 µM, an IC50 (Human Calpain 9/NS1) of under 3 µM and an IC50 [1, 4] of under 10 µM. The IC50 [2] was over 25 µM and the IC50 (Human Calpain 1/NS1) was under 3 µM.

`NC(=O)C(=O)[C@H](Cc1ccccc1)NC(=O)c1cn(C#Cc2ccccc2)c2ccccc12` [Compound 252, (S)—N-(4-amino-3,4-dioxo-1-phenylbutan-2-yl)-1-(phenylethynyl)-1H-indole-3-carboxamide] gave an IC50 (Human Calpain 2/NS1; Column B) of over 10 µM, an IC50 (Human Calpain 9/NS1; Column C) of over 10 µM and an IC50 [1, 3] of over 25 µM. For the same molecule, the IC50 ([2]; Column E) was over 25 µM and the IC50 (Human Calpain 1/NS1; Column A) was over 10 µM.

`Cc1nnn(-c2ccccc2)c1C(=O)N[C@@H](Cc1ccccc1)C(=O)C(N)=O` [Compound 55, (S)—N-(4-amino-3,4-dioxo-1-phenylbutan-2-yl)-4-methyl-1-phenyl-1H-1,2,3-triazole-5-carboxamide] gave an IC50 (Human Calpain 2/NS1; Column B) of under 3 µM, an IC50 (Human Calpain 9/NS1; Column C) of under 3 µM and an IC50 [1, 3] of under 10 µM. It also gave an IC50 ([2]; Column E) of over 25 µM and an IC50 (Human Calpain 1/NS1; Column A) of under 3 µM.

`Cc1cc(C(=O)N[C@H](C=O)Cc2ccccc2)n(-c2ncccn2)n1` [Compound 341, (S)-3-methyl-N-(1-oxo-3-phenylpropan-2-yl)-1-(pyrimidin-2-yl)-1H-pyrazole-5-carboxamide] showed an IC50 (Human Calpain 2/NS1) of under 3 µM, an IC50 (Human Calpain 9/NS1) of 3 to 10 µM and an IC50 [1, 4] of over 25 µM. For the same molecule, the IC50 [2] was 10 to 25 µM and the IC50 (Human Calpain 1/NS1) was under 3 µM.

For `Cn1cc(C(=O)N[C@@H](Cc2c[nH]c3ccccc23)C(=O)C(N)=O)c(-c2ccccc2)n1` [Compound 423, (S)—N-(4-amino-1-(1H-indol-3-yl)-3,4-dioxobutan-2-yl)-1-methyl-3-phenyl-1H-pyrazole-4-carboxamide], the IC50 (Human Calpain 2/NS1) was under 3 µM, the IC50 (Human Calpain 9/NS1) was under 3 µM and the IC50 [1, 4] was under 10 µM. The IC50 [2] was under 10 µM and the IC50 (Human Calpain 1/NS1) was under 3 µM.

With `C#CC[C@H](NC(=O)c1cn(C)nc1-c1ccccc1F)C(=O)C(N)=O` [Compound 574, (S)—N-(1-amino-1,2-dioxohex-5-yn-3-yl)-3-(2-fluorophenyl)-1-methyl-1H-pyrazole-4-carboxamide] the IC50 (Human Calpain 2/NS1) was under 3 µM, the IC50 (Human Calpain 9/NS1) was under 3 µM and the IC50 [1, 4] was over 25 µM. It also gave an IC50 [2] of over 25 µM and an IC50 (Human Calpain 1/NS1) of under 3 µM.

`NC(=O)C(=O)C(Cc1ccccc1)NC(=O)c1cnoc1-c1cccc(F)c1` (stereo not drawn) [Compound 559, N-(4-amino-3,4-dioxo-1-phenylbutan-2-yl)-5-(3-fluorophenyl)isoxazole-4-carboxamide] showed an IC50 (Human Calpain 2/NS1) of under 3 µM, an IC50 (Human Calpain 9/NS1) of under 3 µM and an IC50 [1, 4] of 10 to 25 µM. For the same molecule, the IC50 [2] was over 25 µM and the IC50 (Human Calpain 1/NS1) was under 3 µM.

`Cc1noc(-c2ccccc2)c1C(=O)N[C@@H](Cc1ccc(F)cc1)C(=O)C(N)=O` [Compound 58] gave an IC50 (Human Calpain 2/NS1; Column B) of under 3 µM, an IC50 (Human Calpain 9/NS1; Column C) of under 3 µM and an IC50 [1, 3] of 10 to 25 µM. The IC50 ([2]; Column E) was over 25 µM and the IC50 (Human Calpain 1/NS1; Column A) was under 3 µM.

Work on `COc1cccc(-c2nn(C)cc2C(=O)NC(Cc2ccccc2)C(=O)C(N)=O)c1` (stereo not drawn) [Compound 407, N-(4-amino-3,4-dioxo-1-phenylbutan-2-yl)-3-(3-methoxyphenyl)-1-methyl-1H-pyrazole-4-carboxamide] yielded an IC50 (Human Calpain 2/NS1) of under 3 µM, an IC50 (Human Calpain 9/NS1) of under 3 µM and an IC50 [1, 4] of 10 to 25 µM. The IC50 [2] was 10 to 25 µM and the IC50 (Human Calpain 1/NS1) was under 3 µM.

In the case of `Cc1cc(C(=O)NC(C=O)Cc2ccccc2)n(-c2cccc(COCc3ccccc3)c2)n1` (stereo not drawn) [Compound 400, 1-(3-((benzyloxy)methyl)phenyl)-3-methyl-N-(1-oxo-3-phenylpropan-2-yl)-1H-pyrazole-5-carboxamide], the IC50 (Human Calpain 2/NS1) is reported as under 3 µM, the IC50 (Human Calpain 9/NS1) is reported as under 3 µM and the IC50 [1, 4] is reported as over 25 µM. For the same molecule, the IC50 [2] was over 25 µM and the IC50 (Human Calpain 1/NS1) was under 3 µM.

Molecule `NC(=O)C(=O)C(Cc1ccccc1)NC(=O)c1cc(Br)nn1-c1ncccn1` (stereo not drawn) [Compound 497, N-(4-amino-3,4-dioxo-1-phenylbutan-2-yl)-3-bromo-1-(pyrimidin-2-yl)-1H-pyrazole-5-carb oxamide] has an IC50 (Human Calpain 2/NS1) of under 3 µM, an IC50 (Human Calpain 9/NS1) of under 3 µM and an IC50 [1, 4] of 10 to 25 µM. The IC50 [2] was under 10 µM and the IC50 (Human Calpain 1/NS1) was under 3 µM.

In the case of `NC(=O)C(=O)C(Cc1ccccc1)NC(=O)C1CCCN1c1ccccc1` (stereo not drawn) [compound 541], the IC50 (Human Calpain 2/NS1) is reported as under 3 µM, the IC50 (Human Calpain 9/NS1) is reported as under 3 µM and the IC50 [1, 4] is reported as 10 to 25 µM. For the same molecule, the IC50 [2] was over 25 µM and the IC50 (Human Calpain 1/NS1) was under 3 µM.

`CCN(CC)Cc1ccc(Oc2ccc(-n3nc(C)cc3C(=O)NC(Cc3ccccc3)C(=O)C(N)=O)cc2)cc1` (stereo not drawn) [Compound 441, N-(4-amino-3,4-dioxo-1-phenylbutan-2-yl)-1-(4-(4-((diethylamino)methyl)phenoxy)phenyl)-3-methyl-1H-pyrazole-5-carboxamide hydrochloride] was tested, and the IC50 (Human Calpain 2/NS1) was over 10 µM, the IC50 (Human Calpain 9/NS1) was over 10 µM and the IC50 [1, 4] was over 25 µM. The IC50 [2] was over 25 µM and the IC50 (Human Calpain 1/NS1) was over 10 µM.
